{
  "source": "patent US20160257957A1",
  "about": "“METHODS AND COMPOSITIONS FOR TREATMENT OF ANGELMAN SYNDROME AND AUTISM SPECTRUM DISORDERS” (PRESIDENT AND FELLOWS OF HARVARD COLLEGE, priority 2010, published 2016)",
  "key": {"mGluR5": {"target": "T1, mGluR5 (Mus musculus, UniProt Q3UVX5)", "T1 construct": "host or cells: mouse model of Fragile X syndrome (in vivo)", "T1 sequence (Q3UVX5 19-1203)": "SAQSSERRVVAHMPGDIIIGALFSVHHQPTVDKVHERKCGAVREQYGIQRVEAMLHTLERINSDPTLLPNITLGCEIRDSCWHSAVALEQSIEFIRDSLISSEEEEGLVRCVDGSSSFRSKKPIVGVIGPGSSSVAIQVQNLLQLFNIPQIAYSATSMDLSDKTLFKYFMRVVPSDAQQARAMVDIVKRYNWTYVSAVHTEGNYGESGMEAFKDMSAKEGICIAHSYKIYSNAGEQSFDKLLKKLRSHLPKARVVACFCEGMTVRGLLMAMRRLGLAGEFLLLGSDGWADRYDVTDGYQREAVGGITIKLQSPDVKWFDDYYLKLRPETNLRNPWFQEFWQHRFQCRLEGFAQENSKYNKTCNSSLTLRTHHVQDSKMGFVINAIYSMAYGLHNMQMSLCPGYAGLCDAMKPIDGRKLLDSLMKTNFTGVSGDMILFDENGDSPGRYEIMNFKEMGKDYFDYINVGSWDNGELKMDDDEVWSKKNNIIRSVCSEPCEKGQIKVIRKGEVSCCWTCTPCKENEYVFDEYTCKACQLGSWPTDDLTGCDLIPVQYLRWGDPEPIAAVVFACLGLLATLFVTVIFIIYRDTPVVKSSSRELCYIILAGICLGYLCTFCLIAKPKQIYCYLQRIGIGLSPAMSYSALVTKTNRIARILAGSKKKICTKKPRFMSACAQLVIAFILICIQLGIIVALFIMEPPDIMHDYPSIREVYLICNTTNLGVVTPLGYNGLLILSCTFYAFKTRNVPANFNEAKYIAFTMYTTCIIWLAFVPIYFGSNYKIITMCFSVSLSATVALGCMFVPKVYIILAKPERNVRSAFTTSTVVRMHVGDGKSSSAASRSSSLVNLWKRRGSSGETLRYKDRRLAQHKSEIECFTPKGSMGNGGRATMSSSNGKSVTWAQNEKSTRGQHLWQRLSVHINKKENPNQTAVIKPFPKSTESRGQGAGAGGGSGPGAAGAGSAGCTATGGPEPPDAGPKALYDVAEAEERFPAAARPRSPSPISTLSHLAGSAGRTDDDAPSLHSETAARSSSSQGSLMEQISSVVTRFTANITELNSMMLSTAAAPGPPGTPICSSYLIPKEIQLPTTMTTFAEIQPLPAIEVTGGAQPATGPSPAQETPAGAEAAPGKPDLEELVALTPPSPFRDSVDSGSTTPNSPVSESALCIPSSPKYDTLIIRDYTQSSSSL", "details": "mouse model of FXS, injection; cited from earlier work"}, "Arc": {"system": "Arc", "details": "literature; cited from earlier work"}, "Ube3A": {"system": "Ube3A", "experiment": "Kainate-induced seizures: Ube3A mRNA and protein in mouse hippocampus", "type": "in vivo, mice", "details": "kainate-induced seizures vs control", "text": "FIGS. 8A-8G show regulation of Ube3A mRNA and protein by neuronal activity. (FIG. 8A) Real-time PCR analysis of Ube3A mRNA extracted from hippocampal neurons at E18+10 DIV treated for six hours with the indicated agent. Data are means+/−SEM from three independent experiments. * indicates statistical significance in pairwise comparison to control: P<0.01 T-test. (FIG. 8B) Quantitative Western blot analysis of Ube3A protein. Protein lysates were collected from hippocampal neurons at E18+8 DIV following treatment with the indicated agent for seven hours. This experiment was performed three times independently and the data were normalized to the control and are presented as means+/−SEM. * indicates P<0.01, # indicates P<0.05 in analysis of statistical significance in pairwise comparison to control by T-test. (FIG. 8C) Quantitative Western blot analysis of Ube3A protein. […] (FIG. 8E) Quantitative Western blot analysis of Ube3A protein from mice 2.5 hours after injection with saline (ctl) or kainic acid (seized) to induce seizures. […] (FIG. 8F) Quantitative Western blot analysis of Ube3A protein from mice housed in standard laboratory cages (control) or placed in cages with novel objects (enriched) for 2.5 hours. […]\nQuantitative Real-Time PCR was carried out following standard procedures. […]"}, "[1]": {"system": "muscarinic acetylcholine receptors (mAChR)", "details": "literature; cited from earlier work"}, "[2]": {"system": "Ube3A-mediated degradation of Arc", "experiment": "Ube3A-mediated degradation of Arc in transfected HEK293T cells (Western blot)", "type": "cell-based", "details": "HEK293T cells transfected with Arc and Ube3A; MG132 10 μM", "method": "(FIG. 9A) Western blot analysis of protein lysates made from brains of wild type and Ube3A knockout mice two hours following kainate acid injection. Immunoprecipitations were performed with an anti-Ube3A antibody and blotted with an anti-Arc antibody to reveal co-immunoprecipitated Arc. Images presented are representative of experiments performed on four independent sets of wildtype and Ube3A knockout mice. (FIG. 9B) Protein lysates were prepared from HEK293T cells transfected with Myc-Arc and HA-tagged ubiquitin and the indicated constructs and then treated with either vehicle control or the proteasome inhibitor MG132 ([…]). Arc was then immunoprecipitated using the anti-Myc antibody 9E10, and Western blot analysis was performed using an anti-Arc antibody to reveal both non-ubiquitinated and ubiquitinated forms of Arc. (FIG. 9C) Mass spectrometric peaks reveal that Ube3A catalyzes the ubiquitination of Arc on lysine 269. […] SEQ ID NO:5 is KGGEFLQYSEGTLSR(SEQ ID NO: 5) shown. Note the presence of two glycine residues covalently linked to the first lysine of this peptide which is indicative of ubiquitin being attached to that specific residue. […] Additional data not pictured here reveal the presence of ubiquitinated lysine 268 as well. […] SEQ ID NO: 6 is LIFAGKGGQLEDGR (SEQ ID NO: 6) shown in upper panel of FIG. 9D. […]"}},
  "note": "Where a SMILES comes first, the peptide text is derived from it. The star is where a group is joined. Cbz = O=C(OCc1ccccc1)*",
  "data": [
    {"compound": "Cc1cccc(C#Cc2ccccc2)n1", "note": "[MPEP, 2-methyl-6-(phenylethynyl)-pyridine]", "values": [
      {"measurement": "surface expression of AMPARs", "setting": "mGluR5", "result": "restored surface expression of AMPARs"},
      {"measurement": "symptoms associated with FXS", "setting": "mGluR5", "result": "prevented the symptoms associated with FXS"}
    ]},
    {"compound": "insulin: insulin", "values": [
      {"measurement": "ARC expression", "setting": "Arc", "result": "increased"}
    ]},
    {"compound": "C=C(C)[C@H]1CN[C@H](C(=O)O)[C@H]1CC(=O)O", "note": "[kainate, kainic acid]", "values": [
      {"measurement": "Ube3A mRNA level", "setting": "Ube3A; mouse hippocampus", "result": "increased"},
      {"measurement": "Ube3A protein level", "setting": "Ube3A; mouse", "result": "increased"}
    ]},
    {"compound": "CN1[C@@H]2CC[C@H]1C[C@@H](OC(=O)C(CO)c1ccccc1)C2", "note": "(stereo partly drawn) [atropine]", "values": [
      {"measurement": "mAChR-induced expression of ARC", "setting": "[1]", "result": "can be inhibited"}
    ]},
    {"compound": "CC(C)C[C@@H](C=O)NC(=O)[C@H](CC(C)C)NC(=O)[C@H](CC(C)C)NC(=O)OCc1ccccc1", "note": "[MG132] (Cbz-Leu-Leu-Leu-aldehyde)", "values": [
      {"measurement": "Ube3A-mediated degradation of Arc", "setting": "[2]", "result": "blocked Ube3A-mediated degradation of Arc"}
    ]},
    {"compound": "O=S(=O)(NCCNC/C=C/c1ccc(Br)cc1)c1cccc2cnccc12", "note": "[H89]", "values": [
      {"measurement": "ARC expression", "setting": "Arc", "result": "induction of ARC expression"}
    ]},
    {"compound": "C[C@@H](CO)CCC[C@@H](C)[C@H]1CC[C@H]2[C@@H]3CC=C4C[C@@H](O)CC[C@]4(C)[C@H]3CC[C@]12C", "note": "[27-hydroxycholesterol]", "values": [
      {"measurement": "ARC expression", "setting": "Arc", "result": "specifically decreased"}
    ]}
  ]
}
